Measurements: patent US4150970A, “Growth regulator for plants” (Board of Trustees of Michigan State University, priority 1977, dated 1979)

Experiments:
Coho barley seedlings = test: Barley seedlings, triacontanol solutions applied to soil (Example XV); format: in vivo
Excerpt: To study the growth of 25-day-old "Coho" barley seedlings treated with triacontanol solutions applied to the soil in the greenhouse. Treatments were started when seedlings were 13 days old.

tobacco callus = test: Growth of tobacco callus, triacontanol and octocosanol (Example XIX, FIG. 6); format: cell-based, Nicotiana tabacum, var. Wisconsin 38; details: 10 days; for growth over the control: four concentrations
Protocol: (§1) Cell cultures were separately grown in disposable petri dishes.
1. Haploid tobacco (Nicotiana tabacum, var. Wisconsin 38)
(§2) The cultures were grown on the basic medium of mineral salts described by Linsmaier and Skoog (Physiol. Plant, […] (1965)). Vitamins and hormones varied for each tissue (Table X-1) to maintain the tissues in an undifferentiated state. For all of the tissues inositol was 100 mg/liter and agar 1%. Sucrose was 3% for all but the bean which was 2%.
(§3) Callus was produced from pith for tobacco, potato and tomato. Bean callus was produced from hypocotyl sections and barley callus from immature ovarian tissue. Subcultures were maintained on the appropriate media.
(§4) Stock solutions of triacontanol were prepared at a concentration of 100 μg/ml. The solvent used was glass distilled benzene. The lower concentrations were obtained by serial dilutions. Treatments were applied to 4.5 cm Whatman #1 filter paper disks in 100 μl aliquots. Controls received 100 μl of glass distilled benzene. The solvent was evaporated for approximately 15 minutes and the filter papers were then placed on the agar medium.
(§5) Callus tissue was then broken into pieces of approximately the same size (10 mg) and placed in the petri dishes on the treated filter paper (one piece per dish). For experiments conducted in the light the intensity was approximately 2.0 microwatts/cm^2 -namometer. Fresh weight measurements were made after 12 days of growth.
A stock solution of octocosanol (CH3 (CH2)26 CH2 OH was prepared in the same manner as the triacontanol solutions above described.
The effect of four concentrations of triacontanol and octocosanol on tobacco callus was determined, using the materials and procedures above described in this Example. The dishes were tared and weighed at the end of 10 days. The results are illustrated in FIG. 6 of the drawings.

field corn = test: Foliar spray and soil drench on field corn (Example IX); format: in vivo; details: for % increase: dry weight
Protocol: To determine the effect of triacontanol methods of treatment, differing amounts of triacontanol were applied to field corn by foliar spray and by drenching the soil. The plants were twelve days old at the time of treatment, and the plants were harvested when forty-two days old.
0.01 mg/l triacontanol applied by soil drench corresponds to 0.4 grams pe
acre. 0.10 mg/l corresponds to 4 grams per acre.

[1] = tested on: Tomato callus cell culture; test: Growth of tomato callus cell culture (Example XIX); format: cell-based, Lycopersicon esculentum, var. marglobe
Protocol: as §1
2. Tomato (Lycopersicon esculentum, var. marglobe)
as §2, §3, §4, §5

oat first-internode = details: published reports; cited from earlier work
[2] = tested on: Potato callus cell culture; test: Growth of potato callus cell culture (Example XIX); format: cell-based, Solanum tuberosum, var. adveria
Protocol: as §1
3. Potato (Solanum tuberosum, var. adveria)
as §2, §3, §4, §5

Bean callus cell culture = test: Growth of bean callus cell culture (Example XIX); format: cell-based, Phaseolus vulgaris, var. seafarer
Protocol: as §1
4. Bean (Phaseolus vulgaris, var. seafarer)
as §2, §3, §4, §5

[3] = foliar spray, 0.01 mg/l (first line)
[4] = foliar spray, printed 0.01 mg/l (second line)
[5] = printed 10.0 g triacontanol, 12 days

CCCCCCCCCCCCCCCCCCCCCCCCCCCCCCO [Triacontanol, 1-triacontanol]
Seedling wt (Coho barley seedlings; nutrients 0, triacontanol 0.01 mg/L): 275 mg/shoot
Seedling wt (Coho barley seedlings; nutrients 0, triacontanol 0.10 mg/L): 270 mg/shoot
Seedling wt (Coho barley seedlings; nutrients 100 mg 20-20-20/L, triacontanol 0.01 mg/L): 310 mg/shoot
Seedling wt (Coho barley seedlings; nutrients 100 mg 20-20-20/L, triacontanol 0.10 mg/L): 316 mg/shoot
Seedling wt (Coho barley seedlings; nutrients 1000 mg 20-20-20/L, triacontanol 0.01 mg/L): 438 mg/shoot
Seedling wt (Coho barley seedlings; nutrients 1000 mg 20-20-20/L, triacontanol 0.10 mg/L): 442 mg/shoot
optimum concentration for growth (tobacco callus): 0.1 μg per dish
growth over the control (tobacco callus; listed as 1-triacontanol): significant increases in growth
growth over the control (tobacco callus; listed as triacontanol): significant increases in growth over the control
application rate for maximum effectiveness (field corn; corn seedlings): about 4 grams per acre
effective application rate (field corn; corn seedlings): about 0.4 grams per acre
Dry Weight (field corn; [3]): 408 mg/shoot
% increase (field corn; [3]): 22%
Dry Weight (field corn; [4]): 463 mg/shoot
% increase (field corn; [4]): 39%
Dry Weight (field corn; soil drench, 0.01 mg/l): 426 mg/shoot
% increase (field corn; soil drench, 0.01 mg/l): 22%
Dry Weight (field corn; soil drench, 0.10 mg/l): 519 mg/shoot
% increase (field corn; soil drench, 0.10 mg/l): 48%
% of control [1, 5]: 140 % of control
Fresh weight [1, 5]: 16.8
growth of in vitro cell cultures ([1]; tomato): significant increases in growth
growth, oat first-internode method (oat first-internode): not active
growth of in vitro cell cultures ([2]; potato): significant increases in growth
% of control [2, 5]: 121 % of control
Fresh weight [2, 5]: 23.5
growth of in vitro cell cultures (Bean callus cell culture; bean): significant increases in growth
% of control (Bean callus cell culture; [5]): 149 % of control
Fresh weight (Bean callus cell culture; [5]): 19.8
